SMILES strings stand for the structures. Where only a bound is given, the exact number is not on record here.

The results in this text go back to ChEMBL document CHEMBL2429773, “Synthesis and antiseizure evaluation of isoindoline-1,3-dione derivatives in mice” (Med Chem Res, 2013).

The test system of data set [1] is Mus musculus. The data set is described as follows: Anticonvulsant activity in albino mouse assessed as protection against subcutaneous pentylenetetrazole-induced death measured as mortality at 300 mg/kg, ip after 0.5 hr. The format is functional. Particulars: sc, route intraperitoneal.
Data set [2] concerns Mus musculus. Kind of data set: Anticonvulsant activity in albino mouse assessed as protection against subcutaneous pentylenetetrazole-induced death measured as mortality at 100 mg/kg, ip after 0.5 hr. The class given is functional. As to conditions: sc, route intraperitoneal.
The test system of data set [3] is Mus musculus. Kind of data set: Anticonvulsant activity in albino mouse assessed as protection against subcutaneous pentylenetetrazole-induced death measured as mortality at 30 mg/kg, ip after 0.5 hr. The format is functional. Particulars: sc.
Data set [4] has as its system Mus musculus. Kind of data set: Anticonvulsant activity against subcutaneous pentylenetetrazole-induced seizures in albino mouse assessed as seizure at 100 mg/kg, ip after 0.5 hr. The class given is functional.
For data set [5], the system named is Mus musculus. Kind of data set: Anticonvulsant activity against subcutaneous pentylenetetrazole-induced seizures in albino mouse assessed as onset of seizure time at 300 mg/kg, ip after 0.5 hr. The class given is functional. Particulars: route intraperitoneal.
Data set [6] has as its system Mus musculus. Kind of data set: Anticonvulsant activity against subcutaneous pentylenetetrazole-induced seizures in albino mouse assessed as onset of seizure time at 100 mg/kg, ip after 0.5 hr. As to conditions: route intraperitoneal. The class given is functional.
In data set [7] the test system is Mus musculus. The data set is described as follows: Anticonvulsant activity against subcutaneous pentylenetetrazole-induced seizures in albino mouse assessed as onset of seizure time at 30 mg/kg, ip after 0.5 hr. Particulars: route intraperitoneal. The format is functional.
Data set [8] concerns Mus musculus. The data set is described as follows: Anticonvulsant activity against subcutaneous pentylenetetrazole-induced seizures in albino mouse assessed as duration of seizure time at 300 mg/kg, ip after 0.5 hr. The class given is functional. Particulars: route intraperitoneal.
The subject of data set [9] is Mus musculus. Kind of data set: Anticonvulsant activity against subcutaneous pentylenetetrazole-induced seizures in albino mouse assessed as duration of seizure time at 100 mg/kg, ip after 0.5 hr. The format is functional. Particulars: route intraperitoneal.
The subject of data set [10] is Mus musculus. The data set is described as follows: Anticonvulsant activity against subcutaneous pentylenetetrazole-induced seizures in albino mouse assessed as duration of seizure time at 30 mg/kg, ip after 0.5 hr. The format is functional. As to conditions: route intraperitoneal.
Data set [11] concerns Mus musculus. Kind of data set: Anticonvulsant activity in ip dosed albino mouse assessed as protection against maximal electroshock-induced seizures after 0.5 hr. The format is functional.
In data set [12] the test system is Mus musculus. The data set is described as follows: Anticonvulsant activity against maximal electroshock-induced seizure in albino mouse assessed as seizures at 300 mg/kg, ip after 0.5 hr. The class given is functional. As to conditions: route intraperitoneal.
Data set [13] concerns Mus musculus. Kind of data set: Anticonvulsant activity against maximal electroshock-induced seizures in albino mouse assessed as seizure at 100 mg/kg, ip after 0.5 hr. The class given is functional. Particulars: route intraperitoneal. (In general: Protection in the maximal electroshock model is a classic sign of anticonvulsant action.)
Data set [14] has as its system Mus musculus. The data set is described as follows: Anticonvulsant activity against maximal electroshock-induced seizures in albino mouse assessed as seizure at 30 mg/kg, ip after 0.5 hr. Particulars: route intraperitoneal. The format is functional.
The nature of data set [15]: Neurotoxicity in ip dosed albino mouse measured after 30 mins by rotarod method. The format is toxicity, organism-based. As to conditions: in vivo.
The subject of data set [16] is Mus musculus. Kind of data set: Protective index, ratio of TD50 for neurotoxicity in ip dosed albino mouse to ED50 for anticonvulsant activity in ip dosed albino mouse. The class given is functional.

In the case of `COc1cccc(N2C(=O)c3ccccc3C2=O)c1`, in the data set on Mus musculus [1], the mortality at 300 mg/kg worked out at 25%. Moreover, the mortality at 100 mg/kg in the data set on Mus musculus [2] was found to be 75%. Besides, the mortality at 30 mg/kg in the data set with Mus musculus [3] (route intraperitoneal) worked out at 100%. In addition, the Activity in the data set with Mus musculus [4] (route intraperitoneal) stood at 100%; in the data set on Mus musculus [12], 75%; in the data set on Mus musculus [13], 100%; in the data set on Mus musculus [14] it was 100%. Also, the Time turned out to be 10.25 min in the data set with Mus musculus [5]; 7.25 min in the data set with Mus musculus [6]; 3 min in the data set on Mus musculus [7]; 22.25 min with Mus musculus [8]; 18.75 min in the data set with Mus musculus [9]; 7.25 min with Mus musculus [10]. Further, in the data set with Mus musculus [11], the ED50 is over 300 mg/kg.

Consider `O=C1c2ccccc2C(=O)N1c1ccc(F)cc1`, for which the mortality at 300 mg/kg in the data set on Mus musculus [1] was found to be 0%. Also, the mortality at 100 mg/kg in the data set on Mus musculus [2] stood at 25%. Moreover, in the data set on Mus musculus [3] (route intraperitoneal), the mortality at 30 mg/kg was 25%. Besides, the Activity with Mus musculus [4] (route intraperitoneal) is 100%; in the data set on Mus musculus [12], 75%; in the data set with Mus musculus [13] it was 100%; in the data set on Mus musculus [14], 100%. Also, the Time was found to be 15.25 min in the data set with Mus musculus [5]; 8.5 min in the data set with Mus musculus [6]; 3 min in the data set on Mus musculus [7]; 23.5 min with Mus musculus [8]; 23.75 min in the data set on Mus musculus [9]; 13.25 min in the data set on Mus musculus [10]. The same compound returned a TD50 at 0.5 h in data set [15] of 182 mg/kg. In the data set with Mus musculus [16], the “Ratio TD50/ED50” value was under 0.6. The ED50 in the data set on Mus musculus [11] was over 300 mg/kg.

As for `O=C1c2ccccc2C(=O)N1c1ccccc1Cl`, the mortality at 300 mg/kg in the data set with Mus musculus [1] was 100%. The mortality at 100 mg/kg in the data set with Mus musculus [2] was 75%. In addition, in the data set on Mus musculus [3] (route intraperitoneal), the mortality at 30 mg/kg worked out at 100%. In addition, the Activity in the data set with Mus musculus [4] (route intraperitoneal) was determined as 100%; in the data set on Mus musculus [12], 25%; in the data set with Mus musculus [13], 75%; in the data set on Mus musculus [14], 100%. The Time with Mus musculus [5] worked out at 9.5 min; with Mus musculus [6] it was 6.5 min; in the data set on Mus musculus [7], 1.5 min; in the data set on Mus musculus [8], 24.5 min; with Mus musculus [9], 14.25 min; in the data set with Mus musculus [10], 8.25 min. Further, the ED50 with Mus musculus [11] came out at 168 mg/kg.

Turning to `O=C1c2ccccc2C(=O)N1c1ccccc1` [N-PHENYL-PHTHALIMIDE], the mortality at 300 mg/kg with Mus musculus [1] turned out to be 25%. In the data set with Mus musculus [2], the mortality at 100 mg/kg turned out to be 100%. Moreover, the mortality at 30 mg/kg in the data set with Mus musculus [3] (route intraperitoneal) was 100%. Further, the Activity in the data set on Mus musculus [4] (route intraperitoneal) is 100%; in the data set on Mus musculus [12], 0%; in the data set on Mus musculus [13], 25%; in the data set on Mus musculus [14], 100%. In addition, the Time in the data set with Mus musculus [5] is recorded as 6 min; with Mus musculus [6], 4.5 min; in the data set with Mus musculus [7] it was 3.25 min; in the data set with Mus musculus [8] it was 15.75 min; with Mus musculus [9] it was 11 min; in the data set with Mus musculus [10] it was 3.75 min. The TD50 at 0.5 h in data set [15] is over 300 mg/kg. In addition, the “Ratio TD50/ED50” value with Mus musculus [16] was over 4.53. The ED50 in the data set with Mus musculus [11] amounted to 66.2 mg/kg.

As for `O=C1c2ccccc2C(=O)N1c1ccccc1F`, in the data set on Mus musculus [1], the mortality at 300 mg/kg was 75%. Further, the mortality at 100 mg/kg in the data set with Mus musculus [2] was 100%. The mortality at 30 mg/kg in the data set with Mus musculus [3] (route intraperitoneal) stood at 100%. The Activity came to 100% with Mus musculus [4] (route intraperitoneal), 0% with Mus musculus [12], 75% in the data set on Mus musculus [13] and 100% with Mus musculus [14]. For the same compound, the Time with Mus musculus [5] stood at 4.75 min; in the data set with Mus musculus [6], 5 min; with Mus musculus [7], 2 min; in the data set on Mus musculus [8], 12 min; in the data set with Mus musculus [9], 9 min; in the data set on Mus musculus [10], 5.5 min. The compound also came in with a TD50 at 0.5 h in data set [15] of 233 mg/kg. Also, in the data set with Mus musculus [16], the “Ratio TD50/ED50” value is given as under 0.77. For the same compound, in the data set with Mus musculus [11], the ED50 was over 300 mg/kg.

As to `CN1C(=O)CN=C(c2ccccc2)c2cc(Cl)ccc21` [DIAZEPAM], in the data set with Mus musculus [3], the mortality at 30 mg/kg worked out at 0%. Besides, in the data set on Mus musculus [4] (ROUTE), the Activity was 0%. The ED50 in the data set with Mus musculus [11] amounted to 1.8 mg/kg.

As a reminder, the mortality is the percentage killed. One may read the ED50 as the dose at which the effect has come halfway, by size or by number of responders. The term TD50 denotes the 50% point of the dose-response relation for the toxic effect studied. A low value points to harm at a small dose.
